According to US5202315A, “Cephalosporin compounds” (Lucky, Ltd., priority 1989, dated 1993):
Values after ≈ are worked out from the molar mass of the structure shown.

Key:
Test in all cases: Antibacterial activity, MIC
Type in all cases: cell-based
[1] = test system: Bacillus megaterium ATCC 9885; details: Priestia megaterium, ATCC9885; ATCC 9885; agar two-fold dilution, 37° C., 20 hours; read-out: MIC
Procedure: (§1) Also, the in vitro antibacterial activity was determined by the by a two-fold dilution method as described below:
(§2) That is, the two-fold serial dilutions of the compound were made dispersed in Muller-Hinton agar medium. 2 μl of standard test strain which had the 10^7 CFU per ml was inoculated on the medium, and was incubated at 37° C. for 20 hours.

[2] = test system: Proteus vulgaris ATCC 6059; details: ATCC6059, ATCC 6059, agar two-fold dilution, 37° C., 20 hours, read-out: MIC
Procedure: as §1, §2

[3] = test system: Proteus mirabilis ATCC 25933; details: ATCC25933, ATCC 25933, agar two-fold dilution, 37° C., 20 hours, read-out: MIC
Procedure: as §1, §2

[4] = test system: Shigella sonnei ATCC 11060; details: ATCC11060, 20 h
Procedure: as §1, §2

[5] = test system: Staphylococcus epidermidis ATCC 12228; details: ATCC12228, ATCC 12228, agar two-fold dilution, 37° C., 20 hours, read-out: MIC
Procedure: as §1, §2

[6] = test system: Shigella flexneri ATCC 11836; details: ATCC11836, agar two-fold dilution, 37° C., 20 hours
Procedure: as §1, §2

[7] = test system: Serratia marcescens ATCC 27117; details: ATCC27117, ATCC 27117, agar two-fold dilution, 37° C., 20 hours, read-out: MIC
Procedure: as §1, §2

[8] = test system: Pseudomonas aeruginosa ATCC 25619; details: ATCC25619, ATCC 25619, agar two-fold dilution, 37° C., 20 hours, read-out: MIC
Procedure: as §1, §2

[9] = test system: Klebsiella pneumoniae ATCC 10031; details: ATCC10031, ATCC 10031, agar two-fold dilution, 37° C., 20 hours, read-out: MIC
Procedure: as §1, §2

[10] = test system: Citrobacter freundii ATCC 8090; details: ATCC8090, ATCC 8090, agar two-fold dilution, 37° C., 20 hours, read-out: MIC
Procedure: as §1, §2

[11] = test system: Staphylococcus aureus ATCC 10537; details: ATCC10537, ATCC 10537, agar two-fold dilution, 37° C., 20 hours, read-out: MIC
Procedure: as §1, §2

[12] = test system: Salmonella typhimurium ATCC 14028; details: Salmonella enterica; ATCC 14028; agar two-fold dilution, 37° C., 20 hours; read-out: MIC
Procedure: as §1, §2

[13] = test system: Micrococcus luteus ATCC 9341; details: ATCC9341, ATCC 9341, agar two-fold dilution, 37° C., 20 hours, read-out: MIC
Procedure: as §1, §2

[14] = test system: Bacillus cereus ATCC 11778; details: ATCC11778, ATCC 11778, agar two-fold dilution, 37° C., 20 hours, read-out: MIC
Procedure: as §1, §2

[15] = test system: Pseudomonas aeruginosa ATCC 10145; details: ATCC10145, ATCC 10145, agar two-fold dilution, 37° C., 20 hours, read-out: MIC
Procedure: as §1, §2

[16] = test system: Morganella morganii ATCC 8076h; details: ATCC8076H, agar two-fold dilution, 37° C., 20 hours
Procedure: as §1, §2

[17] = test system: Pseudomonas aeruginosa ATCC 27853; details: ATCC27853, ATCC 27853, agar two-fold dilution, 37° C., 20 hours, read-out: MIC
Procedure: as §1, §2

[18] = test system: Enterobacter aerogenes ATCC 29751; details: Klebsiella aerogenes, ATCC29751; ATCC 29751; agar two-fold dilution, 37° C., 20 hours; read-out: MIC
Procedure: as §1, §2

[19] = test system: Escherichia coli ATCC 25922; details: ATCC25922, agar two-fold dilution, 37° C., 20 hours
Procedure: as §1, §2

[20] = test system: Providencia rettgeri ATCC 9250; details: ATCC9250, agar two-fold dilution, 37° C., 20 hours
Procedure: as §1, §2

[21] = test system: Escherichia coli ATCC 10536; details: ATCC10536, agar two-fold dilution, 37° C., 20 hours
Procedure: as §1, §2

[22] = test system: Streptococcus faecalis ATCC 29212; details: Enterococcus faecalis, ATCC29212; ATCC 29212; agar two-fold dilution, 37° C., 20 hours; read-out: MIC
Procedure: as §1, §2

[23] = test system: Staphylococcus aureus ATCC 6538p; details: ATCC6538P, ATCC 6538p, agar two-fold dilution, 37° C., 20 hours, read-out: MIC
Procedure: as §1, §2

[24] = test system: Acinetobacter calcoaceticus ATCC 15473; details: ATCC15473, ATCC 15473, agar two-fold dilution, 37° C., 20 hours, read-out: MIC
Procedure: as §1, §2

[25] = test system: Enterobacter cloacae ATCC 27508; details: ATCC27508, ATCC 27508, agar two-fold dilution, 37° C., 20 hours, read-out: MIC
Procedure: as §1, §2

SMILES	MIC [1] [µg/mL]	MIC [2] [µg/mL]	MIC [3] [µg/mL]	MIC [5] [µg/mL]	MIC [6] [µg/mL]	MIC [7] [µg/mL]	MIC [8] [µg/mL]	MIC [9] [µg/mL]	MIC [10] [µg/mL]	MIC [11] [µg/mL]	MIC [12] [µg/mL]	MIC [13] [µg/mL]	MIC [14] [µg/mL]	MIC [15] [µg/mL]	MIC [16] [µg/mL]	MIC [17] [µg/mL]	MIC [18] [µg/mL]	MIC [19] [µg/mL]	MIC [20] [µg/mL]	MIC [21] [µg/mL]	also measured
CCO/N=C(\C(=O)NC1C(=O)N2C(C(=O)[O-])=C(CSc3nc(N)cc(N)[n+]3CC)CSC12)c1csc(N)n1 (stereo not shown) [Compound I-12]	0.063 (≈ 0.109 µM)	0.25 (≈ 0.431 µM)	0.13 (≈ 0.224 µM)	0.063 (≈ 0.109 µM)	0.031 (≈ 0.0535 µM)	0.13 (≈ 0.224 µM)	1 (≈ 1.73 µM)	≤ 0.008	0.063 (≈ 0.109 µM)	0.25 (≈ 0.431 µM)	0.5 (≈ 0.863 µM)	≤ 0.008	16 (≈ 27.6 µM)	8 (≈ 13.8 µM)	≤ 0.008	2 (≈ 3.45 µM)	0.5 (≈ 0.863 µM)	0.13 (≈ 0.224 µM)	≤ 0.008	0.063 (≈ 0.109 µM)	MIC [4]: 0.13 µg/mL (≈ 0.224 µM); MIC [22]: 32 µg/mL (≈ 55.2 µM); MIC [23]: 0.25 µg/mL (≈ 0.431 µM); MIC [24]: 4 µg/mL (≈ 6.9 µM); MIC [25]: ≤ 0.008 µg/mL
CC(C)(O/N=C(\C(=O)NC1C(=O)N2C(C(=O)[O-])=C(CSc3nc(N)cc(N)[n+]3N)CSC12)c1nsc(N)n1)C(=O)O (stereo not shown) [Compound I-13]	1 (≈ 1.6 µM)	0.13 (≈ 0.208 µM)	0.13 (≈ 0.208 µM)	4 (≈ 6.39 µM)	0.063 (≈ 0.101 µM)	0.25 (≈ 0.4 µM)	2 (≈ 3.2 µM)	0.063 (≈ 0.101 µM)	0.13 (≈ 0.208 µM)	8 (≈ 12.8 µM)	0.5 (≈ 0.799 µM)	1 (≈ 1.6 µM)	> 128	2 (≈ 3.2 µM)	0.016 (≈ 0.0256 µM)	1 (≈ 1.6 µM)	1 (≈ 1.6 µM)	0.13 (≈ 0.208 µM)	≤ 0.008	0.13 (≈ 0.208 µM)	MIC [22]: > 128 µg/mL; MIC [23]: 16 µg/mL (≈ 25.6 µM); MIC [24]: 4 µg/mL (≈ 6.39 µM); MIC [25]: 0.031 µg/mL (≈ 0.0495 µM)
